Data: ChEMBL document CHEMBL1201862, “PubChem BioAssay data set” (2004)
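In this assay, cells in 96-well plates receive the compound at five concentrations for 48 hours. Endpoints are linearly interpolated between the surrounding concentrations. GI50 marks 50% less growth.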 Activity calls are given as the source filed them. No stated cut-off is given here; in the data, active = GI50 up to about 1.1 µM and inactive = higher.

Experiments:
Test in all cases: NCI-60 cell line screen, 48 h
[1] = tested on: UACC-257
[2] = tested on: MDA-MB-231
[3] = tested on: NCI/ADR-RES
[4] = tested on: SF-295
[5] = tested on: OVCAR-8
[6] = tested on: T47D
[7] = tested on: HCT-116
[8] = tested on: CCRF-CEM
[9] = tested on: SN12C
[10] = tested on: HCC 2998
[11] = tested on: A549
[12] = tested on: RPMI-8226
[13] = tested on: SNB-75
[14] = tested on: Malme-3M
[15] = tested on: HOP-62
[16] = tested on: SF-539
[17] = tested on: NCI-H460
[18] = tested on: OVCAR-5
[19] = tested on: MOLT-4
[20] = tested on: SNB-19
[21] = tested on: M14
[22] = tested on: K562
[23] = tested on: DU-145
[24] = tested on: OVCAR-4
[25] = tested on: SK-MEL-28
[26] = tested on: ACHN
[27] = tested on: EKVX
[28] = tested on: SW-620
[29] = tested on: CAKI-1
[30] = tested on: MDA-MB-435
[31] = tested on: SK-OV-3
[32] = tested on: MCF7
[33] = tested on: U-251
[34] = tested on: SF-268
[35] = tested on: PC-3
[36] = tested on: HCT-15
[37] = tested on: RXF 393
[38] = tested on: UO-31
[39] = tested on: BT-549
[40] = tested on: NCI-H522
[41] = tested on: OVCAR-3
[42] = tested on: Hs-578T
[43] = tested on: HOP-92
[44] = tested on: NCI-H23
[45] = tested on: 786-0
[46] = tested on: SR
[47] = tested on: HT-29
[48] = tested on: COLO 205
[49] = tested on: IGROV-1
[50] = tested on: MDA-N
[51] = tested on: SK-MEL-5
[52] = tested on: SK-MEL-2
[53] = tested on: KM12
[54] = tested on: UACC-62
[55] = tested on: NCI-H226
[56] = tested on: A498
[57] = tested on: LOX IMVI
[58] = tested on: TK-10
[59] = tested on: HL-60

`C/C(=N\Nc1nc2ccccc2s1)c1cnccn1` was tested, and the GI50 [1] was 4.13 µM (inactive), the GI50 [2] was 0.757 µM (active) and the GI50 [3] was 1.74 µM (inactive). For the same molecule, the GI50 [4] was 2.76 µM (inactive), the GI50 [5] was 1.7 µM (inactive) and the GI50 [6] was 0.769 µM (active). The GI50 [7] was 1.5 µM (inactive), the GI50 [8] was 0.318 µM (active) and the GI50 [9] was 1.08 µM (active). The GI50 [10] was 7.21 µM (inactive), the GI50 [11] was 3.3 µM (inactive) and the GI50 [12] was 2.89 µM (inactive). The GI50 [13] was 2.8 µM (inactive), the GI50 [14] was 0.505 µM (active) and the GI50 [15] was 2.75 µM (inactive). The GI50 [16] was 5.24 µM (inactive), the GI50 [17] was 1.77 µM (inactive) and the GI50 [18] was 3.33 µM (inactive). For the same molecule, the GI50 [19] was 0.461 µM (active), the GI50 [20] was 3.67 µM (inactive) and the GI50 [21] was 0.685 µM (active). The GI50 [22] was 1.67 µM (inactive), the GI50 [23] was 4.34 µM (inactive) and the GI50 [24] was 16.7 µM (inactive). The GI50 [25] was 9.66 µM (inactive), the GI50 [26] was 0.397 µM (active) and the GI50 [27] was 0.146 µM (active). For the same molecule, the GI50 [28] was 0.505 µM (active), the GI50 [29] was 0.256 µM (active) and the GI50 [30] was 6.01 µM (inactive). For the same molecule, the GI50 [31] was 2.08 µM (inactive), the GI50 [32] was 1.52 µM (inactive) and the GI50 [33] was 3.67 µM (inactive). The GI50 [34] was 1.16 µM (inactive), the GI50 [35] was 2.12 µM (inactive) and the GI50 [36] was 0.625 µM. For the same molecule, the GI50 [37] was 12.7 µM (inactive), the GI50 [38] was 1.06 µM (active) and the GI50 [39] was 11.1 µM (inactive). For the same molecule, the GI50 [40] was 0.265 µM (active), the GI50 [41] was 0.49 µM (active) and the GI50 [42] was 2.33 µM (inactive). For the same molecule, the GI50 [43] was 1.51 µM (inactive), the GI50 [44] was 1.94 µM (inactive) and the GI50 [45] was 2.13 µM (inactive). The GI50 [46] was 0.652 µM (active), the GI50 [47] was 0.175 µM (active) and the GI50 [48] was 0.344 µM (active). The GI50 [49] was 0.406 µM (active), the GI50 [50] was 11.4 µM (inactive) and the GI50 [51] was 2.57 µM (inactive). For the same molecule, the GI50 [52] was 7.5 µM (inactive), the GI50 [53] was 2.07 µM (inactive) and the GI50 [54] was 3.88 µM (inactive). The GI50 [55] was 0.247 µM (active).

In the case of `CC(=O)OC[C@@]1(C)[C@@H]2[C@@H]3[C@@]4(CO[C@]3(C)C(=O)[C@@]3(OC(C)=O)C[C@H](C)[C@H](OC(C)=O)[C@@H]3[C@H]4OC(C)=O)[C@H](OC(=O)c3ccccc3)C[C@@H]21`, the GI50 [1] is reported as > 100 µM (inactive), the GI50 [2] is reported as > 100 µM (inactive) and the GI50 [3] is reported as > 100 µM (inactive). For the same molecule, the GI50 [4] was 93.3 µM (inactive), the GI50 [5] was > 100 µM (inactive) and the GI50 [6] was 66.2 µM (inactive). The GI50 [7] was 67.9 µM (inactive), the GI50 [8] was 32.8 µM (inactive) and the GI50 [9] was > 100 µM (inactive). The GI50 [10] was > 100 µM (inactive), the GI50 [11] was 74.1 µM (inactive) and the GI50 [12] was 19 µM (inactive). For the same molecule, the GI50 [13] was > 100 µM (inactive), the GI50 [14] was > 100 µM (inactive) and the GI50 [15] was > 100 µM (inactive). The GI50 [16] was > 100 µM (inactive), the GI50 [17] was 59 µM (inactive) and the GI50 [18] was > 100 µM (inactive). The GI50 [20] was > 100 µM (inactive), the GI50 [21] was 91.4 µM (inactive) and the GI50 [22] was 24 µM (inactive). For the same molecule, the GI50 [23] was > 100 µM (inactive), the GI50 [24] was > 100 µM (inactive) and the GI50 [25] was > 100 µM (inactive). For the same molecule, the GI50 [26] was > 100 µM (inactive), the GI50 [27] was 63.2 µM (inactive) and the GI50 [56] was > 100 µM (inactive). For the same molecule, the GI50 [28] was 78.5 µM (inactive), the GI50 [29] was > 100 µM (inactive) and the GI50 [30] was > 100 µM (inactive). The GI50 [31] was > 100 µM (inactive), the GI50 [32] was 81.8 µM (inactive) and the GI50 [33] was > 100 µM (inactive). The GI50 [34] was > 100 µM (inactive), the GI50 [35] was 45.6 µM (inactive) and the GI50 [36] was over 100 µM. For the same molecule, the GI50 [37] was > 100 µM (inactive), the GI50 [57] was 79.6 µM (inactive) and the GI50 [58] was > 100 µM (inactive). For the same molecule, the GI50 [59] was 63.8 µM (inactive), the GI50 [38] was 99.8 µM (inactive) and the GI50 [39] was > 100 µM (inactive). For the same molecule, the GI50 [40] was > 100 µM (inactive), the GI50 [41] was > 100 µM (inactive) and the GI50 [42] was > 100 µM (inactive). For the same molecule, the GI50 [43] was > 100 µM (inactive), the GI50 [44] was > 100 µM (inactive) and the GI50 [45] was > 100 µM (inactive). The GI50 [47] was 89.9 µM (inactive), the GI50 [48] was 49.8 µM (inactive) and the GI50 [49] was > 100 µM (inactive). For the same molecule, the GI50 [50] was > 100 µM (inactive), the GI50 [51] was > 100 µM (inactive) and the GI50 [52] was > 100 µM (inactive). For the same molecule, the GI50 [53] was > 100 µM (inactive), the GI50 [54] was > 100 µM (inactive) and the GI50 [55] was > 100 µM (inactive).
